Values after ≈ are worked out from the molar mass of the structure shown.
Legend:
[1] = biological target: T1, chitin synthase 1 of Candida albicans chs2 Δ chs 3 Δ (Candida albicans, UniProt P23316); experiment: In vitro enzyme assay for chitin synthase 1 of Candida albicans (enzyme 1); format: biochemical; details: relative to polyoxin D (50% inhibitory activity = value 5)
T1 construct: Crude enzyme was prepared using the Candida albicans chs2 Δ chs 3 Δ mutant; endogenous in cells; host or cells: Candida albicans chs2Δ/chs2Δ chs3Δ/chs3Δ mutant; 130,000 x g membrane pellet
Procedure: Crude enzyme was prepared using the Candida albicans chs2 Δ chs 3 Δ mutant (chs2 Δ::hisG/chs2 Δ::hisG chs3 Δ::hisG/chs3 Δ::hisG) strain, which can only produce the chitin synthase 1. The strain was inoculated with the SDA (Sabouraud dextrose agar) culture medium (4% dextrose, 1% peptone, pH 5.6) and cultured at 30° C. for 15-17 hours until the absorbance at 550nm reaches 0.7. The cells were collected and suspended in a 50 mM Tris-HCl (pH 7.5) buffer solution containing 5 mM magnesium acetate. After centrifugation at 8,000×g for 10 minutes, the pellets were suspended in the same Tris-HCl buffer solution. The suspension was divided into aliquots in 50 mL conical test tubes. After adding glass beads, the cells were disrupted by vigorously vortexing with an interval of 30 seconds. The cell residues were removed by centrifuging at 3,000×g for 5 minutes. The supernatant was ultra-centrifuged at 130,000×g for 1 hour. The resultant pellets were collected and suspended in 50 mM Tris-HCl (pH 7.5) containing 33% glycerol, to a final volume of 1.6 mg/g (wet weight) of yeast used. The suspension was divided into aliquots and kept at −70° C. until it is used.
(§1) The inhibitory activities against the chitin synthase 1 of Candida albicans chs2 Δ chs 3 Δ (abbreviated as ‘enzyme 1’) and the chitin synthase 2 of Saccharomyces cerevisiae ECY38-38A(pAS6)(abbreviated as ‘enzyme 2’) was examined for compound Nos. 1 to 70 compound and polyoxin D, a positive control compound.
(§2) The inhibitory activity against the chitin synthase 1 prepared from Candida albicans and the chitin synthase 2 prepared from Saccharomyces cerevisiae were examined as follows. A reaction mixture containing 32 mM Tris-HCl (pH 7.5), 2 mM cobalt acetate, 1.1 mM UDP-[U-^14C]-N-acetyl-d-glucosamine (GlcNAc) (400,000 cpm/μmol), 2 μL of trypsin (0.75 mg/mL), 20 μL of each crude enzyme and 14 μL of each test sample was kept at 30° C. for 15 minutes to activate the enzyme. Then, 2 μL of trypsin inhibitor (1.5 mg/mL) was added and the mixture was kept in an ice bath for 10 minutes to deactivate trypsin. 2 μL of 0.8 M N-acetyl-d-glucosamine was added to a total volume of 50 μL and reaction was performed at 30° C. for 90 minutes. The reaction was stopped using 1 mL of 10% TCA solution and the reaction solution was filtered with a GF/C filter and dried at room temperature. After adding 3 mL of a scintillation cocktail solution, the amount of isotopes was measured using a liquid scintillation counter. Percentage inhibition against each enzyme was calculated by the following Equation 1.
(§3) The control group was not added with a test sample in the reaction mixture and that of the untreated group contained neither the test sample nor the crude enzyme.
(§4) A 50% inhibitory activity of polyoxin D against the enzyme was given the value 5. A compound having the same inhibitory activity as that of polyoxin D at the same concentration was given the value 5. Compounds having the inhibitory activity at 2-fold, 4-fold, 8-fold and 16-fold higher concentrations than that of polyoxin D were given the values of 4, 3, 2 and 1, respectively. On the other hand, compounds having the inhibitory activity at ½, ¼ and ⅛ lower concentrations than that of polyoxin D were given the values of 6, 7 and 8, respectively.

[2] = biological target: T2, chitin synthase 2 of Saccharomyces cerevisiae ECY38-38A(pAS6) (Saccharomyces cerevisiae, UniProt P14180); experiment: In vitro enzyme assay for chitin synthase 2 of Saccharomyces cerevisiae (enzyme 2); format: biochemical; details: relative to polyoxin D (50% inhibitory activity = value 5)
T2 construct: made in house; host or cells: Saccharomyces cerevisiae ECY38-38A (chs1-23 chs2::LEU2 cal1/csd2) carrying plasmid pAS6, grown in galactose medium; 130,000 x g membrane pellet
Procedure: Crude enzyme was prepared using the recombinant Saccharomyces cerevisiae ECY38-38A(pAS6) (MATa chs1-23 chs2::LEU2 cal 1/csd 2 ura 3-52 trp 1-1 leu 2-2 pAS6) strain, which can produce the chitin synthase 2 only. The strain was inoculated with the YPG culture medium (1% yeast extract, 2% peptone, 2% galactose) and cultured at 30° C. overnight. Then, it was inoculated with a fresh YPG culture medium and cultured for 15-17 hours until the Absorbance at 550 nm reaches 1.0. The cells were collected and suspended in 50 mM Tris-HCl (pH 7.5) buffer containing 5 mM magnesium acetate. After centrifugation at 8,000×g for 10 minutes, the pellets were suspended in the same Tris-HCl buffer solution. The suspension was divided into aliquots in 50 mL conical test tubes. After adding the glass beads, the cells were disrupted by vigorously vortexing with an interval of 30 seconds. The cell residues were removed by centrifuging at 3,000×g for 5 minutes. The supernatant was ultra-centrifuged at 130,000×g for 1 hour. The resultant pellets were collected and suspended in 50 mM Tris-HCl (pH 7.5) containing 33% glycerol, to a final volume of 1.6 mg/g (wet weight) of yeast used. The suspension was divided into aliquots and kept at −70° C. until it is used.
as §1, §2, §3, §4

[3] = system: Candida glabrata ATCC 48435; experiment: In vitro antifungal activity (MIC), NCCLS method; format: cell-based; details: Candida glabrata ATCC 48435; 48 hours
Excerpt: (§5) Candida albicans ATCC 10231, Candida lusitaniae ATCC 42720, Candida krusei ATCC 6258, Candida tropicalis ATCC 13803, Candida glabrata ATCC 48435, Candida parapsilosis ATCC 34136, Cryptococcus neoformans ATCC 36556, Aspergillus fumigatus ATCC 16424, Aspergillus flavus ATCC 64025, Aspergillus terreus ATCC 46941 and Mucor ramosissimus ATCC 90286 strains for the MIC (minimum inhibitory concentration) measurement were obtained from ATCC (American Type Culture Collection) in the U.S. The Candida albicans A207(clinical isolate) strain was used by isolating it from the patients.
(§6) The determination of MIC was performed according to the NCCLS (National Committee for Clinical Laboratory Standard) method. Each test sample solution was diluted two-fold and inoculated with a fungal suspension to reach a final inoculum size of 5×10^2 to 2.5×10^3 cell/mL. The Cryptococcus neoformans strain was cultured in the RPMI 1640 medium for 72 hours. Other strains were cultured for 48 hours.

[4] = system: Aspergillus terreus ATCC 46941; experiment: In vitro antifungal activity (MIC), NCCLS method; format: cell-based; details: 48 hours
Excerpt: as §5, §6

[5] = system: Aspergillus fumigatus ATCC 16424; experiment: In vitro antifungal activity (MIC), NCCLS method; format: cell-based; details: 48 hours
Excerpt: as §5, §6

[6] = system: Candida albicans ATCC 10231; experiment: In vitro antifungal activity (MIC), NCCLS method; format: cell-based; details: 48 hours
Excerpt: as §5, §6

[7] = system: Candida parapsilosis ATCC 34136; experiment: In vitro antifungal activity (MIC), NCCLS method; format: cell-based; details: Candida parapsilosis ATCC 34136; 48 hours
Excerpt: as §5, §6

[8] = system: Candida albicans A207 (clinical isolate); experiment: In vitro antifungal activity (MIC), NCCLS method; format: cell-based; details: 48 hours
Excerpt: as §5, §6

[9] = system: Mucor ramosissimus ATCC 90286; experiment: In vitro antifungal activity (MIC), NCCLS method; format: cell-based; details: 48 hours
Excerpt: as §5, §6

[10] = system: Aspergillus flavus ATCC 64025; experiment: In vitro antifungal activity (MIC), NCCLS method; format: cell-based; details: 48 hours
Excerpt: as §5, §6

[11] = system: Candida tropicalis ATCC 13803; experiment: In vitro antifungal activity (MIC), NCCLS method; format: cell-based; details: 48 hours
Excerpt: as §5, §6

[12] = system: Cryptococcus neoformans ATCC 36556; experiment: In vitro antifungal activity (MIC), NCCLS method; format: cell-based; details: RPMI 1640 medium, 72 hours
Excerpt: as §5, §6

[13] = system: Candida lusitaniae ATCC 42720; experiment: In vitro antifungal activity (MIC), NCCLS method; format: cell-based; details: 48 hours
Excerpt: as §5, §6

[14] = system: Candida krusei ATCC 6258; experiment: In vitro antifungal activity (MIC), NCCLS method; format: cell-based; details: 48 hours
Excerpt: as §5, §6

T2 sequence (P14180 whole entry): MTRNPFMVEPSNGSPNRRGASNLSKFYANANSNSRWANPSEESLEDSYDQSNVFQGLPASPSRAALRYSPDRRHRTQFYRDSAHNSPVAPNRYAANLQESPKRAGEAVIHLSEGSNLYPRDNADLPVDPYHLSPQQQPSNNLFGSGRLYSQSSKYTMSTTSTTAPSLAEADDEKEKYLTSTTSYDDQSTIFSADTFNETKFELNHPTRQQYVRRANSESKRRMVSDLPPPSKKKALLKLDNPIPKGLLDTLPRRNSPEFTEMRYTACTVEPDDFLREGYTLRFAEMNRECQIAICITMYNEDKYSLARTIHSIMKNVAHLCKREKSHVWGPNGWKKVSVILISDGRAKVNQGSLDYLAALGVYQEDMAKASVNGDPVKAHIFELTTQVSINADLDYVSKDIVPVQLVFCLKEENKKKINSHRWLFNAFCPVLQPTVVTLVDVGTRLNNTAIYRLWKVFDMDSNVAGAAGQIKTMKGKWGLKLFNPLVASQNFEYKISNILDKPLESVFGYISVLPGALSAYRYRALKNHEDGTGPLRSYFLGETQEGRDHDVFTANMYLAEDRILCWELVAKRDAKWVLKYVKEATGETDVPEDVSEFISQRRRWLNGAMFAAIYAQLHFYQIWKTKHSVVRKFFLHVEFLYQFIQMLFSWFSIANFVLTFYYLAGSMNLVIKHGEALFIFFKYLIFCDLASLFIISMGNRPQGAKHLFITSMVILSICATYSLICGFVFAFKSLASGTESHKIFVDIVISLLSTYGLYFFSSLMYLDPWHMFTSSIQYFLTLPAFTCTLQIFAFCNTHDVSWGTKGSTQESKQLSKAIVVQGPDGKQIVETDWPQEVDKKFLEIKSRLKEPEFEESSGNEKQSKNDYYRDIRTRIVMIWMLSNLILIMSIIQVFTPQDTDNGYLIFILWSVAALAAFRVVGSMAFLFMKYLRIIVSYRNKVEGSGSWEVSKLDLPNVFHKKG
T1 sequence (P23316 whole entry, stated change not applied): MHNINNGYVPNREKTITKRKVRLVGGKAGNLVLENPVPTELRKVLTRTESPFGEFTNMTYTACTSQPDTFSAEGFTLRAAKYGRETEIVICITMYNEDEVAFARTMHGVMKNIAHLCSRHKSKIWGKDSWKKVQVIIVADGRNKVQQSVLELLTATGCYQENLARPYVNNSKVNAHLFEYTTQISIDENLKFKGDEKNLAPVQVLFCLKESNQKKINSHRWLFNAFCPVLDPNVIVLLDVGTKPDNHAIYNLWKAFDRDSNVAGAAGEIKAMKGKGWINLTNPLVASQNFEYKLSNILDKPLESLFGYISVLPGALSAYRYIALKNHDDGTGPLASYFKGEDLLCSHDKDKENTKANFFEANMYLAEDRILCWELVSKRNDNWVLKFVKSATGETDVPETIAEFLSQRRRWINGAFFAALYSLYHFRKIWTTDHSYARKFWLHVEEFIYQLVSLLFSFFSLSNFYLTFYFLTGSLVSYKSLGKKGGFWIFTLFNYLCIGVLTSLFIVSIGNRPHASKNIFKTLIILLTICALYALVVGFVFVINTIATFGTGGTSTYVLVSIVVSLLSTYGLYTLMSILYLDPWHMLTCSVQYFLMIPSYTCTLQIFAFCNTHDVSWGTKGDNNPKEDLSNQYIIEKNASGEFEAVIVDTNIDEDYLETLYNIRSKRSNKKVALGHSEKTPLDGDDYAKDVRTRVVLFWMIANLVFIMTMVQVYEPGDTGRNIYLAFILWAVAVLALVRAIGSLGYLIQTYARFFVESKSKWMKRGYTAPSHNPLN

Row | Compound | Relative activity Enzyme 1 [1] | Relative activity Enzyme 2 [2] | MIC (minimum inhibitory concentration) [3] [µg/mL] | MIC (minimum inhibitory concentration) [4] [µg/mL] | MIC (minimum inhibitory concentration) [5] [µg/mL] | MIC (minimum inhibitory concentration) [6] [µg/mL] | MIC (minimum inhibitory concentration) [7] [µg/mL] | MIC (minimum inhibitory concentration) [8] [µg/mL] | MIC (minimum inhibitory concentration) [9] [µg/mL] | MIC (minimum inhibitory concentration) [10] [µg/mL] | MIC (minimum inhibitory concentration) [11] [µg/mL] | MIC (minimum inhibitory concentration) [12] [µg/mL] | MIC (minimum inhibitory concentration) [13] [µg/mL] | MIC (minimum inhibitory concentration) [14] [µg/mL]
1 | 13-(4-Isopropylbenzyl)-9-O-(3-hydroxypropyl)berberrubine chloride [Compound No. 53] | 4 (Compounds having the inhibitory activity at 2-fold, 4-fold, 8-fold and 16-fold higher concentrations than that of polyoxin D were given the values of 4, 3, 2 and 1, respectively) | 6 (compounds having the inhibitory activity at ½, ¼ and ⅛ lower concentrations than that of polyoxin D were given the values of 6, 7 and 8, respectively) | 2 | 8 | 2 | 0.5 | 2 | 0.5 | 4 | 8 | 0.5 | 1 | 2 | 1
2 | COc1ccc2c(Cc3cc(F)c(F)c(F)c3)c3[n+](cc2c1OCc1ccc(C(C)(C)C)cc1)CCc1cc2c(cc1-3)OCO2.[Cl-] [Compound No. 61, 13-(3,4,5-Trifluorobenzyl)-9-O-(4-tert-butylbenzyl)berberrubine chloride] | 2 (Compounds having the inhibitory activity at 2-fold, 4-fold, 8-fold and 16-fold higher concentrations than that of polyoxin D were given the values of 4, 3, 2 and 1, respectively) | 4 (Compounds having the inhibitory activity at 2-fold, 4-fold, 8-fold and 16-fold higher concentrations than that of polyoxin D were given the values of 4, 3, 2 and 1, respectively) | – | – | – | – | – | – | – | – | – | – | – | –
3 | COc1cc(Cc2c3[n+](cc4c(OCc5ccc(C(C)(C)C)cc5)c(OC)ccc24)CCc2cc4c(cc2-3)OCO4)cc(OC)c1OC.[Cl-] [Compound No. 64, 13-(3,4,5-Trimethoxybenzyl)-9-O-(4-tert-butylbenzyl)berberrubine chloride] | 2 (Compounds having the inhibitory activity at 2-fold, 4-fold, 8-fold and 16-fold higher concentrations than that of polyoxin D were given the values of 4, 3, 2 and 1, respectively) | 4 (Compounds having the inhibitory activity at 2-fold, 4-fold, 8-fold and 16-fold higher concentrations than that of polyoxin D were given the values of 4, 3, 2 and 1, respectively) | – | – | – | – | – | – | – | – | – | – | – | –
4 | COc1ccc2c(Cc3ccc(OC(F)(F)F)cc3)c3[n+](cc2c1OCc1ccc(C(C)(C)C)cc1)CCc1cc2c(cc1-3)OCO2.[Cl-] [Compound No. 67, 13-(4-Trifluoromethoxybenzyl)-9-O-(4-tert-butylbenzyl)berberrubine chloride] | 2 (Compounds having the inhibitory activity at 2-fold, 4-fold, 8-fold and 16-fold higher concentrations than that of polyoxin D were given the values of 4, 3, 2 and 1, respectively) | 5 (A compound having the same inhibitory activity as that of polyoxin D at the same concentration was given the value 5) | – | – | – | – | – | – | – | – | – | – | – | –
5 | COc1ccc2c(Cc3ccc(C(F)(F)F)cc3)c3[n+](cc2c1OCc1ccc(C(C)(C)C)cc1)CCc1cc2c(cc1-3)OCO2.[Cl-] [Compound No. 70, 13-(4-Trifluoromethylbenzyl)-9-O-(4-tert-butylbenzyl)berberrubine chloride] | 2 (Compounds having the inhibitory activity at 2-fold, 4-fold, 8-fold and 16-fold higher concentrations than that of polyoxin D were given the values of 4, 3, 2 and 1, respectively) | 5 (A compound having the same inhibitory activity as that of polyoxin D at the same concentration was given the value 5) | – | – | – | – | – | – | – | – | – | – | – | –
6 | C[C@@H]1[C@H](O)[C@@H](C)/C=C/C=C/C=C/C=C/C=C/C=C/C=C/[C@H](O[C@@H]2O[C@H](C)[C@@H](O)[C@H](N)[C@@H]2O)C[C@@H]2O[C@](O)(C[C@@H](O)C[C@@H](O)[C@H](O)CC[C@@H](O)C[C@@H](O)CC(=O)O[C@H]1C)C[C@H](O)[C@H]2C(=O)O [amphotericin B, reference compound] | – | – | 1 (≈ 1.08 µM) | 16 (≈ 17.3 µM) | 1 (≈ 1.08 µM) | 0.5 (≈ 0.541 µM) | 0.5 (≈ 0.541 µM) | 0.5 (≈ 0.541 µM) | 0.5 (≈ 0.541 µM) | 4 (≈ 4.33 µM) | 0.5 (≈ 0.541 µM) | 0.125 (≈ 0.135 µM) | 1 (≈ 1.08 µM) | 0.5 (≈ 0.541 µM)

Reference: patent US7915276B2, “Berberrubine derivatives having antifungal activities” (priority 2006, dated 2011)
